Assay results from patent publication US4495202A, “Terphenyl derivatives and pharmaceutical uses thereof” (Eli Lilly and Company, priority 1983, dated 1985).
Like-named read-outs stand apart in the source and are kept apart here.

Legend:
[1] = test system: Cox standard strain albino male mice; experiment: standard mouse writhing assay (acetic acid-induced writhing); type: in vivo
Procedure: The analgesic activity of a number of compounds provided by this invention has been determined in the standard mouse writhing assay. Writhing, which is characterized by contraction of the abdominal musculature, extension of the hindlegs, and rotation of the trunk, was induced in Cox standard strain albino male mice. […] Each treatment group consisted of five mice. The total number of writhes for the treatment group was determined during a 10-minute observation starting five minutes after acetic acid administration. […] Table I which follows presents typical test results obtained with certain of the compounds of this invention. The results in the mouse writhing assay are presented as the effective oral (p.o.) dose in mg./kg. of the tested compound required to inhibit induced writhing in the test animals by fifty percent (ED50).

[2] = test system: male Lewis-Wistar rats; experiment: Established adjuvant-induced arthritis test in rats; type: in vivo; conditions: rat, days 15-29, from areas under the curves of uninjected paw volume
[3] = 3 h, oral gavage in corn oil-acacia emulsion (5%), three hours before acetic acid (0.60 percent, i.p.), inhibition of writhing by fifty percent, read-out: Mouse Writhing ED50
[4] = 25 mg./kg. p.o. × 15, corn oil-acacia emulsion by gavage
[5] = 10 mg./kg. p.o. × 15, corn oil-acacia emulsion by gavage

Compound | ED50 [1, 3] [mg/kg] | ED50 ([1]; 4 h, oral, at four hours post dosing, read-out: Mouse Writhing ED50 at four hours post dosing) [mg/kg] | % Inhibition of Uninjected Paw Volume Inflammation, Days 14 through 30 [2, 4] [%] | % Inhibition of Uninjected Paw Volume Inflammation, Days 14 through 30 [2, 5] [%]
COc1ccc(-c2ccc(-c3ccc(F)cc3)cc2-c2ccc(OC)cc2)cc1 [Example 1, 4'-(4-Fluorophenyl)-4,4"-dimethoxy-1,1':2',1"-terphenyl] | 11.8 | 3.9 | 55 | –
COc1ccc(-c2ccc(-c3ccccc3)cc2-c2ccc(OC)cc2)cc1 [Example 2, 4'-Phenyl-4,4"-dimethoxy-1,1':2',1"-terphenyl] | 14.6 | – | 13 | –
COc1ccc(-c2ccc(-c3ccc(Cl)cc3)cc2-c2ccc(OC)cc2)cc1 [Example 3, 4'-(4-Chlorophenyl)-4,4"-dimethoxy-1,1':2',1"-terphenyl] | 14.2 | – | 52 | 31
COc1ccc(-c2ccc(-c3ccc(Br)cc3)cc2-c2ccc(OC)cc2)cc1 [Example 4, 4'-(4-Bromophenyl)-4,4"-dimethoxy-1,1':2',1"-terphenyl] | 72.8 | – | 34 | –
COc1ccc(-c2ccc(-c3cccc(F)c3)cc2-c2ccc(OC)cc2)cc1 [Example 5, 4'-(3-Fluorophenyl)-4,4"-dimethoxy-1,1':2',1"-terphenyl] | 8.9 | – | 40 | –
COc1ccc(-c2ccc(C(F)(F)F)cc2-c2ccc(OC)cc2)cc1 [Example 6, 4'-Trifluoromethyl-4,4"-dimethoxy-1,1':2',1"-terphenyl] | 5.6 | – | – | 48
